# Measurements taken from article doi:10.1101/324947v3 (biorxiv, 2020).
# How the values were obtained:
# [1] = molecular target: T1, recombinant IDO1 (holo-IDO1; apo-IDO1) (Homo sapiens, UniProt P14902); assay: NFK formation from D-TRP, Morrison tight binding fit; type: biochemical
# [2] = molecular target: T1, recombinant IDO1 (holo-IDO1; apo-IDO1); assay: intrinsic TRP fluorescence quenching, equilibrium titration; type: binding
# [3] = molecular target: T1, recombinant IDO1 (holo-IDO1; apo-IDO1); assay: fluorescence polarization competition against GSK1051; type: binding
# T1 sequence (P14902 whole entry): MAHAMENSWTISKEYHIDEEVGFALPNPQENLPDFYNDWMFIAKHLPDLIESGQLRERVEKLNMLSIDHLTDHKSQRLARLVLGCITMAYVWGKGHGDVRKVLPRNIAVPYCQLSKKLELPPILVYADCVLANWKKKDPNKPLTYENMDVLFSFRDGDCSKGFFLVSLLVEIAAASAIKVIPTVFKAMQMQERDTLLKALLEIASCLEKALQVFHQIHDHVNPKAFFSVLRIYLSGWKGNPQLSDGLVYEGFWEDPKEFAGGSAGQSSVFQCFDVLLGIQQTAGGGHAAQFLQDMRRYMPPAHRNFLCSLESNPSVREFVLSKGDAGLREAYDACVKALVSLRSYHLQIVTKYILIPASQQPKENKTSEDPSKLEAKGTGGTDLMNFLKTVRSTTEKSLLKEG
Structure (SMILES),Ki [1] [nM],Kd [2] [nM],IC50 [3] [nM]
CC(C)CN(CC(C)C)c1ccc([C@H](C)CC(=O)O)cc1Nc1nc(C(F)(F)F)ns1 [GSK5628],10,2.1,–
C=CC1=C(C)C2=Cc3c(C=C)c(C)c4[n]3[Fe+][n]3c(c(C)c(CCC(=O)O)c3=CC3=NC(=C4)C(C)=C3CCC(=O)O)=CC1=N2 [heme],–,–,4.4
